The text below walks through data of publication PMC3131257, “Hypericum lanceolatum (Hypericaceae) as a potential source of new anti-malarial agents: a bioassay-guided fractionation of the stem bark” (Malaria Journal, 2011).

In brackets after ≈: the same amount, converted by molar mass. Counter-ions that a name gives are not always drawn. Like-named read-outs stand apart in the source and are kept apart here. A value given as a limit tells only on which side of the number the result lay.

The test system of data set [1] is K1. Conditions: against K1; cited from earlier work.
The test system of data set [2] is CQ-resistant K1 P. falciparum. The following applies: betulinic acid from Uapaca nitida root bark; cited from earlier work.
Data set [3] relates to field isolate (SHF4) of Plasmodium falciparum. Description: anti-plasmodial drug sensitivity assay, pLDH method, SHF4 field isolate. It is filed as cell-based. Conditions: for IC50: Plasmodium falciparum, pure compounds, pLDH assay. The method, then: (§1) The W2mef (MRA-615) strain was ordered from the Malaria Research and Reference Reagent Resource Centre (MR4, Manassas, VA, USA), and maintained in continuous culture. The SHF4 field isolate previously isolated from a malaria patient in Buea in the South West region of Cameroon, had been stored in liquid nitrogen at the Biotechnology Unit, University of Buea.
(§2) The field isolate and the laboratory strain of P. falciparum were grown and maintained in culture using the method of Trager and Jensen with some modification. All the chemicals except Albumax II (Gibco; Invitrogen, USA), were ordered from Sigma-Aldrich Inc (Germany). Cultures consisted of a 4% haematocrit suspension of O+ human erythrocytes in RPMI 1640 medium supplemented with a gentamicin solution at 0.01 mg/mL, 25 mM HEPES buffer, 25 mM NaHCO3, and 1% Albumax II. Cultures were fed with a gas mixture consisting of 5% CO2 and incubated at 37°C (CO2 incubator Heraeus, Hera cell 150; USA). The estimation of the parasitaemia as well as parasite visualization before incubation was done using both fluorescence (Acridine Orange) and normal light (Giemsa stain) microscopes.
(§3) The drug sensitivity assay was carried out in 96-well microtitration plates as described by Desjardins et al with some modifications. All stock solutions were sterilized by passing them through a 0.2 μm syringe filter and stored at -20°C until required. Similarly, a 2 μg/mL stock solution of quinine dihydrochloride (Rotexmedica, Trittau, Germany) was prepared and used as positive control. The parasitaemia was measured using the parasite lactate dehydrogenase (pLDH) assay.
(§4) The pLDH assay generates optical density (OD) values at various concentrations of the drug as raw data. OD values from control wells represent the maximum amount of pLDH produced by parasites and OD values from blank wells (containing a 4% suspension of non parasitized red blood cells in malaria culture medium) represented background pLDH activity. A 100% growth value, which corresponds to maximum LDH activity, was obtained by subtracting the mean OD value of blank wells from that of control wells. Likewise, the growth value at each concentration of the drug was obtained by adjusting OD values from drug-treated wells for background pLDH activity (parasite-free red blood cells). These values were then expressed as a percentage of the maximal growth value and plotted against corresponding concentrations of the drug using the software HN-NonLin V1.1 [14] to generate log dose-response curves from which the 50%, 90%, 95% and 99% Inhibitory Concentrations (IC50, IC90, IC95 and IC99 respectively) were obtained. Each product was tested in triplicate in each of the two separate experiments, giving a total of six repeats per product and per concentration tested. The IC50 values obtained from these replicates were pooled and expressed as geometric mean IC50 values and the different means compared among themselves by independent samples t-test using SPSS Statistics 17.0 (Chicago, USA).

Data set [4] concerns neural cells. The following applies: in vitro; cited from earlier work.
Data set [5] deals with W2 strain of P. falciparum. Also noted: method as in PMID 18239315. The following applies: betulinic acid from Psorospermum glaberrimum; cited from earlier work.
The subject of data set [6] is LLC-MK2 monkey kidney epithelial cells. Nature of the data set: cytotoxicity on LLC-MK2 monkey kidney epithelial cells. Conditions: pure compounds; five days incubation. On the procedure: (§5) The cytotoxicity profiles of the extracts and pure compounds were estimated against LLC-MK2 monkey kidney epithelial cells according to the procedure previously described with some modifications. Cells were cultured under the same conditions as P. falciparum. Cells were distributed in 96-well plates at 20,000 cells per well in 100 μL culture medium, and allowed to attach and become confluent, for 24h. The medium was then removed completely the next day and 100 μL of fresh medium was added to all the wells, followed by 100 μL of crude extract (1000 μg/mL) or pure compounds (200 μg/mL) added in triplicate in row H. A two folds serial dilution was made upward to obtain concentration range of 250 - 3.90 μg/ml (crude extract) or 50 - 0.78 μg/ml (pure compounds), cells at row A serving as control without drug. The plates were incubated for five days at 37°C in 5% CO2 in air. Cells concentration and viability in the presence of extracts or pure compounds were compared with that of control cultures without extracts.

The subject of data set [7] is CQ-sensitive T9-96 P. falciparum. The following applies: betulinic acid from Uapaca nitida root bark; cited from earlier work.
In data set [8] the test system is multidrug-resistant W2mef strain of P. falciparum. Nature of the data set: microbe, parasite or virus in culture. Format: cell-based, Plasmodium falciparum. On the procedure:
as §1, §2, §3, §4

Data set [9] can be described thus: cytotoxicity on LLC-MK2 monkey kidney epithelial cells. Conditions: monkey, LLC-MK2 monkey kidney epithelial cells, CC50 on LLC-MK2, pure compounds; five days incubation. On the procedure:
as §5

The test system of data set [10] is P. falciparum. Also noted: method as in PMID 9581528. Conditions: growth of P. falciparum; cited from earlier work.
[11] abbreviates: Plasmodium falciparum, read-out: IC50 on W2mef, pure compounds, pLDH assay.
Setting [12] is: Plasmodium falciparum, read-out: IC50 on W2mef, pure compounds, values expressed in μg/mL (Table 2 footnote *, text b34).
The mark [13] stands for this setting: read-out: IC50 on W2mef, pure compounds, pLDH assay.

Broadly, the IC50 is the concentration at which inhibition is half-maximal. As a reminder, the CC50 is the concentration at which the toxic effect on the cells reaches its halfway point.

With 6-hydroxyluteolin-7-O-(1^2-a-rhamnoside, the IC50 in data set [1] is 2.13 µg/mL.

Take `C=C(C)[C@@H]1CC[C@]2(C(=O)O)CC[C@]3(C)[C@H](CC[C@@H]4[C@@]5(C)CC[C@H](O)C(C)(C)[C@@H]5CC[C@]43C)[C@@H]12` [HLT1, 3-hydroxy-lup-20(29)-en-28-oic acid]: the IC50 is 19.6 µg/mL (≈ 42.9 µM) in data set [2]; 5.6 ± 0.13 µM in [3]; 5.1 µM in data set [5]; 25.9 µg/mL (≈ 56.7 µM) in data set [7]; less than 5 µM in [8] (setting [11]); less than 5 µg/mL in data set [8] (setting [12]). Besides, the IC50 in [8] (setting [13]) is 4.5 ± 1.35 µM. Also, the “cytotoxic activity against neural cells (in words)” value in data set [4] is listed as “no significant cytotoxic activity”. In [6], the “CC50 on LLC-MK2” value turned out to be 25.00 ± 0.00 µg/mL (≈ 54.7 µM).

Turning to `O=C(c1cc(O)ccc1O)c1c(O)cccc1O` [HLT2, 2,2',5,6'-tetrahydroxybenzophenone], the IC50 amounted to 13.4 ± 0.16 µM in data set [3] and 55.1 ± 0.93 µM in data set [8] (setting [11]). In addition, the CC50 at 5 days in data set [9] is more than 100 µg/mL.

`COc1ccc2c(=O)c3cccc(O)c3oc2c1` [HLT3, 5-hydroxy-3-methoxyxanthone]: the IC50 in data set [3] is 1.43 ± 0.48 µM; in data set [8] (setting [11]) it was less than 5 µM; in data set [8] (setting [12]), less than 5 µg/mL; in [8] (setting [13]) it was 3.26 ± 0.08 µM. The compound also returned a cytotoxic concentration (CC50) at 5 days in data set [9] of more than 100 µg/mL.

As for `COc1cccc2c(=O)c3ccc(O)cc3oc12` [HLT4, 3-hydroxy-5-methoxyxanthone], the IC50 was 34.09 ± 0.12 µM in [3] and 33.84 ± 0.2 µM in data set [8] (setting [11]). Further, the “anti-plasmodial activity (in words)” value in data set [3] (against the field isolate) and in [8] (against W2mef) was “inactive” each time. This compound had a CC50 at 5 days in data set [9] of 10 to 30 µg/mL (≈ 41.3 to 124 µM). For the same compound, the “CC50 on LLC-MK2” value in data set [6] was 12.50 ± 0.00 µg/mL (≈ 51.6 µM).

With `C=C[C@H]1C[N@@]2CC[C@H]1C[C@H]2[C@H](O)c1ccnc2ccc(OC)cc12` [QN, quinine dihydrochloride, reference compound], the IC50 is 0.14 ± 0.05 µM in data set [3]; 0.27 ± 0.04 µM in [8] (setting [11]); 0.27 ± 0.04 µg/mL in data set [8] (Plasmodium falciparum, read-out: IC50 on W2mef, sub-extracts and fractions, pLDH assay).

For the compound garciniaxanthone, the IC50 in [10] was 0.96 µg/mL.
